From patent US10414763B2 (CANCER RESEARCH TECHNOLOGY LIMITED, priority 2014, dated 2019)

Target: T1, full-length human PKCι (Homo sapiens, UniProt P41743)
T1 construct: Recombinant, full-length human PKCι expressed in Sf21 insect cells is also commercially available; purchased EMD Millipore; host or cells: Sf21 insect cells (baculovirus)
T1 sequence (P41743 1-596): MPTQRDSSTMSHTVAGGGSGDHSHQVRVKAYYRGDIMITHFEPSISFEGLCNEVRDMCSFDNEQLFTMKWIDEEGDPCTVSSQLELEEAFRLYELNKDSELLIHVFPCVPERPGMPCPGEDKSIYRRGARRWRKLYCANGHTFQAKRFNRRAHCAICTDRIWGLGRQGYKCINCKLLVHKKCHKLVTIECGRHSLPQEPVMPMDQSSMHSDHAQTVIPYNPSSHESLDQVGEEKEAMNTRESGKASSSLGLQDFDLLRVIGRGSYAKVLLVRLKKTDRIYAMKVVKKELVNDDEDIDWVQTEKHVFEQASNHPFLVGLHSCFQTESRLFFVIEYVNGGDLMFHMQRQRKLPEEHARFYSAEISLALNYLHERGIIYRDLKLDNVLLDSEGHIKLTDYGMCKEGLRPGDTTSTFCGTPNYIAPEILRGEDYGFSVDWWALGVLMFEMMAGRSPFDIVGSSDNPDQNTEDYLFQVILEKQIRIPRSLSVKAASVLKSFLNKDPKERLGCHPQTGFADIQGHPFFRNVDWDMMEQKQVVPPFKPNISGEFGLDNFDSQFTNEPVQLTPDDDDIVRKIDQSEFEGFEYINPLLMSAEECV
Assay: PKCι IC50 IMAP fluorescence polarisation assay, full-length enzyme, 150 μM ATP
Type: biochemical
Conditions: read-out: IC50 in IMAP assay against full length PKCi at 150 μM ATP
Summary of the method: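 IMAP fluorescence polarisation kinase assay: 15 pM baculovirus-expressed human PKCiota with 100 nM FAM-pseudosubstrate peptide and 150 μM ATP, 1 h at 25 °C. IMAP detection reagent then 2 h at 25 °C before FP measurement. Inhibition referenced to no-compound and no-enzyme controls for IC50 fitting.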

SMILES | IC50 [nM]
CC1(C)CNCC[C@@H]1Nc1nc(-c2ccnc(Nc3ccc4cccc(F)c4n3)c2)nc2cncc(C3CCC3)c12 [Example 318, {5-Cyclobutyl-2-[2-(8-fluoro-quinolin-2-ylamino)-pyridin-4-yl]-pyrido[3,4-d]pyrimidin-4-yl}-((S)-3,3-dimethyl-piperidin-4-yl)-amine] | < 100
CC1(C)CNCC[C@@H]1Nc1nc(-c2ccnc(Nc3ncc(C#N)cc3F)c2)nc2cncc(C3CCC3)c12 [Example 320, 6-{4-[5-Cyclobutyl-4-((S)-3,3-dimethyl-piperidin-4-ylamino)-pyrido[3,4-d]pyrimidin-2-yl]-pyridin-2-ylamino}-5-fluoro-nicotinonitrile] | < 100
Cc1cc(C#N)cnc1Nc1cc(-c2nc(N[C@H]3CCNCC3(C)C)c3c(C4CCC4)cncc3n2)ccn1 [Example 323, 6-{4-[5-Cyclobutyl-4-((S)-3,3-dimethyl-pipcridin-4-ylamino)-pyrido[3,4-d]pyrimidin-2-yl]-pyridin-2-ylamino}-5-methyl-nicotinonitrile] | < 100
CC1(C)CNCC[C@@H]1Nc1nc(-c2ccnc(Nc3nc(F)cc(F)c3F)c2)nc2cncc(C3CC3)c12 [Example 325, 5-Cyclopropyl-N-[(4S)-3,3-dimethyl-4-piperidyl]-2-[2-[(3,4,6-trifluoro-2-pyridyl)amino]-4-pyridyl]pyrido[3,4-d]pyrimidin-4-amine] | < 100
CC1(C)CNCC[C@@H]1Nc1nc(-c2ccnc(Nc3nc(F)cc(F)c3F)c2)nc2cncc(C3CCC3)c12 [Example 326, 5-Cyclobutyl-N-[(4S)-3,3-dimethyl-4-piperidyl]-2-[2-[(3,4,6-trifluoro-2-pyridyl)amino]-4-pyridyl]pyrido[3,4-d]pyrimidin-4-amine] | < 100
CC1(C)CNCC[C@@H]1Nc1nc(-c2ccnc(Nc3nc4ccccc4o3)c2)nc2cncc(C3CC3)c12 [Example 327, N-[4-[5-Cyclopropyl-4-[[(4S)-3,3-dimethyl-4-piperidyl]amino]pyrido[3,4-d]pyrimidin-2-yl]-2-pyridyl]-1,3-benzoxazol-2-amine] | < 100
CC1(C)CNCC[C@@H]1Nc1nc(-c2ccnc(Nc3cc4ccccn4n3)c2)nc2cncc(C3CC3)c12 [Example 328, 5-Cyclopropyl-N-[(4S)-3,3-dimethyl-4-piperidyl]-2-[2-(pyrazolo[1,5-a]pyridin-2-ylamino)-4-pyridyl]pyrido[3,4-d]pyrimidin-4-amine] | < 100
CC1(C)CNCC[C@@H]1Nc1nc(-c2ccnc(Nc3ncn(-c4ccccc4)n3)c2)nc2cncc(C3CCC3)c12 [Example 329, 5-Cyclobutyl-N-[(4S)-3,3-dimethyl-4-piperidyl]-2-[2-[(1-phenyl-1,2,4-triazol-3-yl)amino]-4-pyridyl]pyrido[3,4-d]pyrimidin-4-amine] | < 100
c1ccc(-n2cnc(Nc3cc(-c4nc(N5CCNCC5)c5c(C6CCC6)cncc5n4)ccn3)n2)cc1 [Example 330, 4-(5-Cyclobutyl-4-piperazin-1-yl-pyrido[3,4-d]pyrimidin-2-yl)-N-(1-phenyl-1,2,4-triazol-3-yl)pyridin-2-amine] | < 100
CN(c1nc(-c2ccnc(Nc3nc(F)ccc3F)c2)nc2cncc(C3CC3)c12)[C@H]1CCNCC1(C)C [Example 331, 5-Cyclopropyl-2-[2-[(3,6-difluoro-2-pyridyl)amino]-4-pyridyl]-N-[(4S)-3,3-dimethyl-4-piperidyl]-N-methyl-pyrido[3,4-d]pyrimidin-4-amine] | < 100
CC1(C)CNCC[C@@H]1Nc1nc(-c2ccnc(Nc3ncc(C#N)cc3F)c2)nc2cncc(C3CC3)c12 [Example 333, 6-[[4-[5-Cyclopropyl-4-[[(4S)-3,3-dimethyl-4-piperidyl]amino]pyrido[3,4-d]pyrimidin-2-yl]-2-pyridyl]amino]-5-fluoro-pyridine-3-carbonitrile] | < 100
CC1(C)CNCC[C@@H]1Nc1nc(-c2ccnc(Nc3ncc(Cl)cc3Cl)c2)nc2cncc(C3CCC3)c12 [Example 337, 5-Cyclobutyl-2-[2-[(3,5-dichloro-2-pyridyl)amino]-4-pyridyl]-N-[(4S)-3,3-dimethyl-4-piperidyl]pyrido[3,4-d]pyrimidin-4-amine] | < 100
CC1(C)CNCC[C@@H]1Nc1nc(-c2ccnc(Nc3nc4ccc(F)cc4o3)c2)nc2cncc(C3CCC3)c12 [Example 338, N-[4-[5-Cyclobutyl-4-[[(4S)-3,3-dimethyl-4-piperidyl]amino]pyrido [3,4-d]pyrimidin-2-yl]-2-pyridyl]-6-fluoro-1,3-benzoxazol-2-amine] | < 100
CC1(C)CNCC[C@@H]1Nc1nc(-c2ccnc(Nc3ncccc3Cl)c2)nc2cncc(C3CC3)c12 [Example 339, 2-[2-[(3-Chloro-2-pyridyl)amino]-4-pyridyl]-5-cyclopropyl-N-[(4S)-3,3-dimethyl-4-piperidyl]pyrido[3,4-d]pyrimidin-4-amine] | 100 to 1000
FC(F)(F)c1cncc2nc(-c3ccnc4[nH]c5ccccc5c34)nc(NC3CCNCC3)c12 [Example 348, Piperidin-4-yl-[2-(9H-pyrido[2,3-b]indol-4-yl)-5-trifluoromethyl-pyrido[3,4-d]pyrimidin-4-yl]-amine] | < 100
c1cncc(-c2cc3c(-c4nc(N5CCC6CNCCC65)c5c(C6CC6)cncc5n4)ccnc3[nH]2)c1 (centres unmarked) [Example 356, 5-Cyclopropyl-4-(octahydro-pyrrolo[3,2-c]pyridin-1-yl)-2-(2-pyridin-3-yl-1H-pyrrolo[2,3-b]pyridin-4-yl)-pyrido[3,4-d]pyrimidine] | < 100
Fc1ccc(Cl)c(-c2cc3c(-c4nc(N5CCOC6CNCC65)c5c(C6CC6)cncc5n4)ccnc3[nH]2)c1 (centres unmarked) [Example 360, 2-[2-(2-Chloro-5-fluoro-phenyl)-1H-pyrrolo[2,3-b]pyridin-4-yl]-5-cyclopropyl-4-(hexahydro-pyrrolo[3,4-b][1,4]oxazin-4-yl)-pyrido[3,4-d]pyrimidine] | < 100

More lines, now with the values ahead:

IC50 [nM] | SMILES
< 100 | CC1(C)CNCC[C@@H]1Nc1nc(-c2ccnc(Nc3cccc(C#N)n3)c2)nc2cncc(C3CCC3)c12 [Example 317, 6-{4-[5-Cyclobutyl-4-((S)-3,3-dimethyl-piperidin-4-ylamino)-pyrido[3,4-d]pyrimidin-2-yl]-pyridin-2-ylamino}-pyridine-2-carbonitrile]
< 100 | CC1(C)CNCC[C@@H]1Nc1nc(-c2ccnc(Nc3ncc(Cl)cc3F)c2)nc2cncc(C3CC3)c12 [Example 319, {2-[2-(5-Chloro-3-fluoro-pyridin-2-ylamino)-pyridin-4-yl]-5-cyclopropyl-pyrido[3,4-d]pyrimidin-4-yl}-((S)-3,3-dimethyl-piperidin-4-yl)-amine]
100 to 1000 | CC1(C)CNCC[C@@H]1Nc1nc(-c2cccc(Nc3ccccn3)c2)nc2cncc(C3CCC3)c12 [Example 321, {5-Cyclobutyl-2-[3-(pyridin-2-ylamino)-phenyl]-pyrido[3,4-d]pyrimidin-4-yl}-((S)-3,3-dimethyl-piperidin-4-yl)-amine]
1000 to 10000 | CC1(C)CNCC[C@@H]1Nc1nc(-c2cccc(Nc3cnccn3)c2)nc2cncc(C3CCC3)c12 [Example 324, 5-Cyclobutyl-N-[(4S)-3,3-dimethyl-4-piperidyl]-2-[3-(pyrazin-2-ylamino)phenyl]pyrido[3,4-d]pyrimidin-4-amine]
< 100 | CC1(C)CNCC[C@@H]1Nc1nc(-c2ccnc(Nc3nc4ccc(F)cc4o3)c2)nc2cncc(C3CC3)c12 [Example 332, N-[4-[5-Cyclopropyl-4-[[(4S)-3,3-dimethyl-4-piperidyl]amino]pyrido [3,4-d]pyrirnidin-2-yl]-2-pyridyl]-6-fluoro-1,3-benzoxazol-2-amine]
< 100 | CC1(C)CNCC[C@@H]1Nc1nc(-c2ccnc(Nc3ncccc3Cl)c2)nc2cncc(C3CCC3)c12 [Example 336, 2-[2-[(3-Chloro-2-pyridyl)amino]-4-pyridyl]-5-cyclobutyl-N-[(4S)-3,3-dimethyl-4-piperidyl]pyrido [3,4-d]pyrimidin-4-amine]
< 100 | CC1(C)CNCC[C@@H]1Nc1nc(-c2ccnc(Nc3ncc(Cl)cc3Cl)c2)nc2cncc(C3CC3)c12 [Example 340, 5-Cyclopropyl-2-[2-[(3,5-dichloro-2-pyridyl)amino]-4-pyridyl]-N-[(4S)-3,3-dimethyl-4-piperidyl]pyrido[3,4-d]pyrimidin-4-amine]
< 100 | CC1(C)CNCC[C@@H]1Nc1nc(-c2ccnc3[nH]c(C(=O)NC4CCCCC4)cc23)nc2cncc(C3CC3)c12 [Example 355, 4-[5-Cyclopropyl-4-((S)-3,3-dimethyl-piperidin-4-ylamino)-pyrido[3,4-d]pyrimidin-2-yl]-1H-pyrrolo[2,3-b]pyridine-2-carboxylic acid cyclohexylamide]
< 100 | COCc1ccccc1-c1cc2c(-c3nc(N[C@H]4CCNCC4(C)C)c4c(C5CC5)cncc4n3)ccnc2[nH]1 [Example 357, {5-Cyclopropyl-2-[2-(2-methoxymethyl-phenyl)-1H-pyrrolo[2,3-b]pyridin-4-yl]-pyrido[3,4-d]pyrimidin-4-yl}-((S)-3,3-dimethyl-piperidin-4-yl)-amine]
